Data published in patent US7666875B2, “Hydantoin compounds” (Eisai R&D Management Co., Ltd., priority 2005, dated 2010).
Where two headings read alike, the source gives them in different places.

Biological target: T1, human T-bet (Homo sapiens, UniProt Q9UL17)
T1 construct: expressed in transfected cells; host or cells: engineered HEK cells (HEKT-bet)
T1 sequence (Q9UL17 1-535): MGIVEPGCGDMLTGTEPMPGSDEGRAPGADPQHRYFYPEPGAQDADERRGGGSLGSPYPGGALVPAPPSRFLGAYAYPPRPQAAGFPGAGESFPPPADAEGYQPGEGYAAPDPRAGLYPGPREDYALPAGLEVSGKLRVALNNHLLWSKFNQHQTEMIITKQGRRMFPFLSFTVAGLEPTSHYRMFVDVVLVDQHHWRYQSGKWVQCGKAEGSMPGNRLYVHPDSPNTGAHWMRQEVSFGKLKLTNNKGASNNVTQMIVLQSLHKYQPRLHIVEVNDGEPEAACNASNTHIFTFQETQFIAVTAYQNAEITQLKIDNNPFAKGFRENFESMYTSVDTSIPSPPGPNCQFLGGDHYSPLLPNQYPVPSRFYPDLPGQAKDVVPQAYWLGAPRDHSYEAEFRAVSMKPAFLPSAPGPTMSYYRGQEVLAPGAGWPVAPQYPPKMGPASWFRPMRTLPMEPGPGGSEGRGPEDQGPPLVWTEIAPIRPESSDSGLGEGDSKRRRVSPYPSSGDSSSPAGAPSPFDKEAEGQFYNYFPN
Test: HEKT-bet-luc assay (T-bet dependent luciferase reporter in engineered HEK cells)
Format: cell-based
Details: HEKT-bet cells, compound 24 hours, IC50 normalized to reference ER-213038, read-out: IC50
Experimental: HEKT-bet-luc assay: This assay measures a T-bet dependent reporter (luciferase) activity in engineered HEK cells that express a human T-bet and a T-box responsive element driving luciferase reporter. HEKT-bet cells were plated at 2×10^4/well in 96-well plate and compound was added into cell culture for 24 hours. Luciferase activity was measured by adding 50 μl of Steady-Glo reagent (Promega) and samples were read in Victor V reader (PerkinElmer). The IC50 values were calculated utilizing a maximum value corresponding to the amount of luciferase in the absence of a test compound and a minimum value corresponding to a test compound value obtained at maximum inhibition.
Determination of Normalized HEKT-bet IC50 values: Compounds were assayed in microtiter plates. Each plate included a reference compound which was ER-213038. The un-normalized IC50 value for a particular compound was divided by the IC50 value determined for the reference compound in the same microtiter plate to provide a relative potency value. The relative potency value was then multiplied by the established potency of the reference compound to provide the normalized HEKT-bet IC50 value. […] The IC50 values provided herein were obtained using this normalization method.

Row | SMILES | IC50 (Table 3) [nM] | IC50 (Table 4) [nM]
1 | COCCN1C(=O)N(CCCc2cccnc2)C(=O)C12CCN(Cc1ccnc3ccccc13)CC2 [Example 81] | 650 | 
2 | COc1cc(CN2CCC3(CC2)C(=O)N(C/C=C/c2ccccc2)C(=O)N3CCn2cccc2)cc(OC)c1 [Example 83] | 667 | 
3 | COc1cc(CN2CCC3(CC2)C(=O)N(C/C=C/c2ccccc2)C(=O)N3CC=C(C)C)cc(OC)c1 [Example 86] | 757 | 
4 | O=C1N(C/C=C/c2ccccc2)C(=O)C2(CCN(Cc3cccc4ccccc34)CC2)N1CCCO [Example 88] | 798 | 
5 | COCCN1C(=O)N(Cc2cccc(OC)c2)C(=O)C12CCN(Cc1cc(C)c(C)s1)CC2 [Example 91] | 845 | 
6 | COCCN1C(=O)N(CCCCCCCCO)C(=O)C12CCN(Cc1ccccc1)CC2 [Example 93] | 914 | 
7 | COCCN1C(=O)N(Cc2ccoc2)C(=O)C12CCN(Cc1cc(OC)cc(OC)c1)CC2 [Example 94] | 936 | 
8 | COc1cccc(CN2CCC3(CC2)C(=O)N(Cc2cc(OC)cc(OC)c2)C(=O)N3Cc2ccc3c(c2)nnn3C)c1 [Example 97] | 1080 | 
9 | COc1cc(CN2CCC3(CC2)C(=O)N(Cc2cc(OC)cc(OC)c2)C(=O)N3CSC)cc(OC)c1 [Example 99] | 1150 | 
10 | COCCN1C(=O)N(Cc2cccc(OC)c2)C(=O)C12CCN(Cc1cccc3nsnc13)CC2 [Example 101] | 1240 | 
11 | COCCN1C(=O)N(Cc2cccc(OC)c2)C(=O)C12CCN(Cc1cc(F)cc3c1OCOC3)CC2 [Example 102] | 1320 | 
12 | COCCN1C(=O)N(Cc2cccc(OC)c2)C(=O)C12CCN(C1CCc3ccc(C)cc31)CC2 (stereo not drawn) [Example 106] | 1420 | 
13 | COCCN1C(=O)N(Cc2cccc(OC)c2)C(=O)C12CCN(C/C=C/c1ccc(OC)cc1)CC2 [Example 108] | 1470 | 
14 | COCCN1C(=O)N(Cc2cccc(OC)c2)C(=O)C12CCN(Cc1cc(F)c(O)c(OC)c1)CC2 [Example 111] | 1550 | 
15 | COCCN1C(=O)N(Cc2cccc(OC)c2)C(=O)C12CCN(CC(=O)C13CC4CC(CC(C4)C1)C3)CC2 [Example 113] | 1650 | 
16 | COCCN1C(=O)N(Cc2cc(C(C)(C)C)cc(C(C)(C)C)c2)C(=O)C12CCN(Cc1ccccc1)CC2 [Example 114] | 1740 | 
17 | COCCN1C(=O)N(Cc2cccc(OC)c2)C(=O)C12CCN(Cc1cc(O)c(OC)c(OC)c1)CC2 [Example 118] | 1880 | 
18 | COc1cc(CN2CCC3(CC2)C(=O)N(C/C=C/c2ccccc2)C(=O)N3C)cc(OC)c1 [Example 121] |  | 25
19 | CCN1C(=O)N(C/C=C/c2ccccc2)C(=O)C12CCN(Cc1cccc(C)c1)CC2 [Example 125] |  | 68
20 | COc1cc(CN2CCC3(CC2)C(=O)N(C/C=C/c2ccccc2)C(=O)N3Cc2cccc(-n3cccc3)c2)cc(OC)c1 [Example 126] |  | 73
21 | COCN1C(=O)N(C/C=C/c2ccccc2)C(=O)C12CCN(Cc1cc(OC)cc(OC)c1)CC2 [Example 136] |  | 124
22 | CCN1C(=O)N(Cc2cccc(OC)c2)C(=O)C12CCN(Cc1cc(OC)cc(OC)c1)CC2 [Example 137] |  | 124

Second part, the compound after the results:

Row | IC50 (Table 3) [nM] | IC50 (Table 4) [nM] | SMILES
23 | 650 |  | COCCN1C(=O)N(CC#Cc2cccc(OC)c2)C(=O)C12CCN(Cc1ccccc1)CC2 [Example 82]
24 | 681 |  | COCCN1C(=O)N(Cc2cccc(OC)c2)C(=O)C12CCN(Cc1cccc(-c3cccc(O)c3)c1)CC2 [Example 84]
25 | 750 |  | COCCN1C(=O)N(Cc2cccc(OC)c2)C(=O)C12CCN(Cc1cccc(-c3ccsc3)c1)CC2 [Example 85]
26 | 782 |  | COCCN1C(=O)N(Cc2cccc(OC)c2)C(=O)C12CCN(Cc1c(Cl)cccc1Cl)CC2 [Example 87]
27 | 835 |  | COCCN1C(=O)N(C/C=C/Cc2cccc(OC)c2)C(=O)C12CCN(Cc1ccccc1)CC2 [Example 89]
28 | 838 |  | COCCN1C(=O)N(CCCc2ccccc2)C(=O)C12CCN(Cc1ccccc1)CC2 [Example 90]
29 | 868 |  | COCCN1C(=O)N(Cc2cccc(OC)c2)C(=O)C12CCN(Cc1cccc(-c3ccc4[nH]ccc4c3)c1)CC2 [Example 92]
30 | 970 |  | CCN1C(=O)N(Cc2ccc3ccccc3c2)C(=O)C12CCN(Cc1ccc3ccccc3c1)CC2 [Example 95]
31 | 1030 |  | COCCN1C(=O)N(Cc2ccc3cc4ccccc4cc3c2)C(=O)C12CCN(Cc1ccccc1)CC2 [Example 96]
32 | 1100 |  | COc1cccc(CN2C(=O)N(Cc3cccc(C#N)c3)C3(CCN(Cc4ccccc4)CC3)C2=O)c1 [Example 98]
33 | 1240 |  | COCCN1C(=O)N(Cc2ccc(C(=O)c3ccccc3)cc2)C(=O)C12CCN(Cc1ccccc1)CC2 [Example 100]
34 | 1340 |  | COCCN1C(=O)N(Cc2cccc(OC)c2)C(=O)C12CCN(Cc1ccccc1OC(F)(F)F)CC2 [Example 103]
35 | 1390 |  | CCOC(=O)CCCCN1C(=O)N(Cc2cccc(OC)c2)C(=O)C12CCN(Cc1ccccc1)CC2 [Example 104]
36 | 1390 |  | COc1cccc(CN2C(=O)N(Cc3cccc4cccnc34)C3(CCN(Cc4cccc5ccccc45)CC3)C2=O)c1 [Example 105]
37 | 1460 |  | COCCN1C(=O)N(CC(=O)c2ccc3ccccc3c2)C(=O)C12CCN(Cc1ccccc1)CC2 [Example 107]
38 | 1520 |  | COc1cccc(CN2C(=O)N(CC=C(C)C)C3(CCN(Cc4ccccc4)CC3)C2=O)c1 [Example 109]

Row | IC50 (Table 3) [nM] | IC50 (Table 4) [nM] | SMILES
39 | 1540 |  | COCCN1C(=O)N(Cc2cccc(OC)c2)C(=O)C12CCN(CC=C(c1ccccc1)c1ccccc1)CC2 [Example 110]
40 | 1570 |  | COc1cccc(CN2C(=O)N(CCOCc3ccccc3)C3(CCN(Cc4ccccc4)CC3)C2=O)c1 [Example 112]
41 | 1810 |  | COCCN1C(=O)N(Cc2cccc(OC)c2)C(=O)C12CCN(Cc1ccc3ccc4cccc5ccc1c3c45)CC2 [Example 115]
42 | 1830 |  | COc1cccc(CN2C(=O)N(Cc3ccc(Cl)cc3)C3(CCN(Cc4ccccc4)CC3)C2=O)c1 [Example 116]
43 | 1840 |  | COCCN1C(=O)N(CCCCOc2ccccc2)C(=O)C12CCN(Cc1ccccc1)CC2 [Example 117]
44 | 1930 |  | COCCN1C(=O)N(CCOCc2ccccc2)C(=O)C12CCN(Cc1ccccc1)CC2 [Example 119]
45 | 1990 |  | COCCN1C(=O)N(Cc2cccc(OC)c2)C(=O)C12CCN(Cc1ccc(-c3cccs3)s1)CC2 [Example 120]
46 |  | 60 | COCCN1C(=O)N(Cc2cccc(OC)c2)C(=O)C12CCN(Cc1c(C)ccc3ccccc13)CC2 [Example 123]
47 |  | 82 | COCCN1C(=O)N(Cc2cccc(OC)c2)C(=O)C12CCN(Cc1ccc(C)c3ccccc13)CC2 [Example 127]
48 |  | 86 | COCCN1C(=O)N(Cc2cccc(OC)c2)C(=O)C12CCN(Cc1cccc3ccccc13)CC2 [Example 128]
49 |  | 94 | COCCN1C(=O)N(Cc2cccc(OC)c2)C(=O)C12CCN(Cc1c(OC)ccc3ccccc13)CC2 [Example 129]
50 |  | 100 | COCCN1C(=O)N(C/C=C/c2ccccc2)C(=O)C12CCN(Cc1cccc3ccccc13)CC2 [Example 131]
51 |  | 101 | COCCN1C(=O)N(C/C=C/c2ccccc2)C(=O)C12CCN(Cc1cccc(OC)c1)CC2 [Example 132]
52 |  | 119 | COCCN1C(=O)N(Cc2cccc(OC)c2)C(=O)C12CCN(Cc1cccc3ccccc13)CC2 [Example 133]
53 |  | 120 | COCCN1C(=O)N(Cc2cccc(OC)c2)C(=O)C12CCN(Cc1cccc(C)c1C)CC2 [Example 134]
54 |  | 123 | COCCN1C(=O)N(Cc2cccc(OC)c2)C(=O)C12CCN(Cc1ccc3cc(OC)ccc3c1)CC2 [Example 135]
